MIC data for eleven compounds are collected here from paper PMC7495458, “Generating Ampicillin-Level Antimicrobial Peptides with Activity-Aware Generative Adversarial Networks” (ACS Omega, 2020).

≈ marks a conversion by molar mass, not a printed value. No end group written: not given here.

The first assay has as its system E. coli TOP10. The experiment in a line: microbe, parasite or virus in culture. The assay is classed as cell-based. The conditions noted are these: Escherichia coli; microdilution test, E. coli TOP10 late-log phase, 5 × 10^5 cfu/mL, 150 μL, 2-fold dilutions, 26 h at 37 °C, optical density 600 nm; read-out: MIC. How it is done: The potency of the peptides is evaluated based on MIC against E. coli. MIC is determined as the minimum concentration of an antimicrobial at which the growth of a target microbe is suppressed. […] The high production ratio, 5/6, and the sufficiently low MIC of AMP4 validate PepGAN’s ability to generate industry-level peptides.
The MICs of the peptides were determined using the microdilution test with some modifications. We used E. coli TOP10 (Thermo Scientific, MA, USA) in the late-log phase for this test. The colony forming unit (cfu) of E. coli was determined using optical density at 600 nm. For each peptide, we prepared 11 wells containing 150 μL of 5 × 10^5 cfu/mL of E. coli and the series of concentration of each peptide from 10 to 0.01 μg/mL (2-fold dilution for 10 times). We also prepared one well containing only 150 μL of 5 × 10^5 cfu/mL of E. coli without the peptide. Similarly, we prepared 11 wells for ampicillin in the same well-plate. We incubate the plates for 26 h at 37 °C for the growth of E. coli. To read the optical density for each well, we set the plates in a plate reader (EnSpire 2300, PerkinElmer). After shaking the plate for 10 s at 300 rpm in double-orbital motion (diameter 1 mm), we measured the optical density of each solution (600 nm).
(Broth dilution looks for growth in wells or tubes with falling amounts of substance.)
Regarding `CC1(C)S[C@@H]2[C@H](NC(=O)[C@H](N)c3ccccc3)C(=O)N2[C@H]1C(=O)O` [ampicillin], the MIC stood at 6.25 µg/mL (≈ 17.9 µM).

The same assay, now with this note: TOP10, 26 h.
As for TLPEWDDRRVVNS-NH2 [AMP10NC], the MIC was >100 µg/mL.
Same read-out and setting: next, KRFLPSCVRSIQNLDDALPTPEEF-NH2 [AMP8NC]: >100 µg/mL.
With GLKKLFSKIKIIGSALKNLA-NH2 [AMP4], the MIC was determined as 3.1 µg/mL.
Take FLGPIIKTVRAVLCAIKKL-NH2 [AMP6]: the MIC came out at 25 µg/mL.
The same measure, in the same setting: in the case of IKALLALPKLAKKIAKKFLK-NH2 [AMP2] it was 50 µg/mL; in that of LFTMADPIQSIEKEI-NH2 [AMP7NC], >100 µg/mL; in that of ILPLLKKFGKKFGKKVWKAL-NH2 [AMP1], 25 µg/mL.
Same read-out and setting: next, FLPAFKNVISKILKALKKKV-NH2 [AMP5]: 12.5 µg/mL; GLRSSVKTLLRGLLGIIKKF-NH2 [AMP3]: >100 µg/mL; EIEYGNPGVGTDR-NH2 [AMP9NC]: >100 µg/mL.
